What was measured:
[1] = tested on: human cancer cell lines FTC 236, SW-1736, SW620, A498, MCF7, HepG2; assay: Transduction efficiency by Ad-βgal (β-gal positive cells), six cancer cell lines; assay type: cell-based; conditions: 72 hrs with 1 ng/ml depsipeptide
Experimental: A total of 6 human cancer cell lines were tested: a follicular thyroid carcinoma (FTC 236) (Demeure et al., World J. Surg. 16:770-776 (1992)); an anaplastic thyroid carcinoma (SW-1736) (Ain et al., J. Clin. Endocrinol. Metab. 81:3650-3653 (1996)); a colon carcinoma (SW620) (Leibovitz et al., Cancer Res. 36:4562-4569 (1976)); a renal cell carcinoma (A498) (Giard et al., J. Natl. Cancer Inst. 51:1417-1423 (1973)); a breast carcinoma (MCF7) (Soule et al., J. Natl. Cancer Inst. 51:1409-1413 (1973)); and a hepatocarcinoma (HepG2) (Knowles et al., Science 209:497-499 (1980)).
The Ad5.CMV-LacZ is an E1 and E3 gene deleted replication defective type 5 adenovirus obtained from Qbiogene (Carlsbad, Calif.). It was grown in 293A cells according to protocols supplied by the company. The AdCMVβgal virus was purified and the titer was determined by the TCID50 assay as described by the manufacturer.
(§1) 10^4 untreated cells or 10^4 cells pre-treated with 1 ng/ml depsipeptide for 72 hrs were plated on a round cover glass (DAIGGER, Vernon Hills, Ill.) in 24 well plates. Cells were transduced with 100 MOI of Ad-βgal in medium without serum for 1 hr and maintained with serum-containing medium for 48 hrs after transduction. Adenovirus transgene expression was compared using the β-Gal Staining Kit (Invitrogen, Carlsbad, Calif.) and β-gal positive cells were counted from three non-overlapping fields.

[2] = tested on: A498, MCF7 and HepG2 cancerous cell lines; assay: β-galactosidase expression upon AdCMVβgal infection, cancerous cell lines (Example 4); assay type: cell-based, human
Experimental: as §1
A498, MCF7 and HepG2 cancerous cell lines and normal cells (Clonetics, Walkersville, Md.) were treated with FR901228. […] Induction of CAR was only observed in normal cells at 10-20 ng/ml FR901228 and then only a two-fold increase in CAR was observed.

[3] = tested on: human umbilical vein endothelial cells (HUVEC); assay: Adenoviral β-galactosidase transgene expression in HUVEC; assay type: cell-based; conditions: HUVEC treated with 0.3 ng/ml for 48 hr prior to adenoviral infection
Excerpt: as §1, with “10^4 untreated cells or 10^4 cells pre-treated with 1 ng/ml depsipeptide for 72 hrs were plated on a round cover glass (DAIGGER, Vernon Hills, Ill.) in 24 well plates.” left out

[4] = tested on: CD34+ selected peripheral blood stem cells (PBSCs); assay: Adenoviral β-galactosidase transgene expression in CD34+ PBSCs; assay type: cell-based; conditions: pre-treated 0.1 ng/ml for 24 hr, moi=10, incubation less than 1 hr
Excerpt: (§2) […] […] Adenovirus transgene expression was compared using the β-Gal Staining Kit (Invitrogen, Carlsbad, Calif.) and β-gal positive cells were counted from three non-overlapping fields.

CAR = CAR expression in PBMNCs of a Phase I depsipeptide patient; assay type: in vivo, human
Excerpt: (§3) In addition to the above, PBMNCs were obtained from a patient enrolled in a Phase I depsipeptide (FR901228) study (concentrations used with cultured cells are within the range administered to patients) and examined.

acetylated histone H3 [5] = assay: Acetylated histone H3 in PBMNCs of a Phase I depsipeptide patient; assay type: in vivo, human; conditions: after administration of depsipeptide
Excerpt: as §3

histone H3 = assay: Western blot analysis of total histone H3; assay type: cell-based, human
Experimental: (§4) Supernatants were collected as nuclear extracts. Ten lag of protein were separated on an 11% SDS-PAGE gel, and electroblotting to Immobilon™-P transfer membrane (Millipore, Bedford, Mass.) was performed. The membrane was incubated for 30 min with either a rabbit polyclonal antibody against acetylated histone H3 (Upstate Biotechnology, Lake Placid, N.Y.) or a rabbit polyclonal antibody against histone H3 (Upstate Biotechnology, Lake Placid, N.Y.) diluted 1:2000 in 5% milk. After washing, anti-rabbit Ig horseradish peroxidase-linked secondary antibody (Amersham Pharmacia Biotech, Piscataway, N.J.) was added and incubated for 30 min. After washing, the membrane was developed in ECL™ Western blotting detection reagents (Amersham Pharmacia Biotech, Piscataway, N.J.).

[6] = tested on: G-CSF-mobilized peripheral blood mononuclear cells (PBMNCs); assay: Adenoviral β-galactosidase transgene expression in PBMNCs; assay type: cell-based; conditions: pre-treated 0.1 ng/ml for 24 hr, moi=10, incubation less than 1 hr
Excerpt: as §2

acetylated histone H3 [7] = assay: Western blot analysis of acetylated histone H3; assay type: cell-based, human
Experimental: as §4, with “Ten lag of protein were separated on an 11% SDS-PAGE gel, and electroblotting to Immobilon™-P transfer membrane (Millipore, Bedford, Mass.) was performed.” left out

K562 cells = assay: Adenoviral β-galactosidase transgene expression in K562; assay type: cell-based, human; conditions: pre-treated 1 ng/ml for 24 hr, moi=50, incubation less than 1 hr
Excerpt: as §2

[8] = tested on: coxsackie-adenovirus receptor (CAR); assay: RT-PCR analysis of CAR RNA levels in cultured cells; assay type: cell-based, human; conditions: for level of CAR (RT-PCR), compared with K562: less than 3 ng/ml; for level of CAR (RT-PCR): HUVEC
Experimental: RT-PCR for CAR and integrin αv was performed using total RNA extracted with the RNeasy Mini Kit (Qiagen, Valencia, Calif.). Single-stranded oligo(dt)-primed cDNA was generated from 1 μg of RNA in a 20 μl reaction using MMLV reverse transcriptase (Life Technologies, Eggenstein, Germany). Oligonucleotide primers used for analysis of human CAR (Bergelson et al., supra) and αv integrin (Suzuki et al., Proc. Natl. Acad. Sci. U.S.A. 83:8614-8618 (1986)) RNA expression were:
(§5) These primers generated products that were 631 bp (CAR) and 490 bp (αv integrin) in length. The amplification reaction was carried out with 1 μg of the cDNA product for 30 cycles, and each cycle consisted of 94° C for 20 sec, 64° C. for 30 sec and 72° C. for 1 min, followed by a final 10 min elongation at 72° C. Comparability of RNA quantities was assured using β-actin as an internal standard. Oligonulceotide primers for human β-actin RNA amplification were: […]

αv integrin = assay: RT-PCR analysis of αv integrin RNA levels in cultured cells; assay type: cell-based, human
Experimental: RT-PCR for CAR and integrin αv was performed using total RNA extracted with the RNeasy Mini Kit (Qiagen, Valencia, Calif.). Single-stranded oligo(dt)-primed cDNA was generated from 1 μg of RNA in a 20 μl reaction using MMLV reverse transcriptase (Life Technologies, Eggenstein, Germany).
as §5, with “The” for “These primers generated products that were 631 bp (CAR) and 490 bp (αv integrin) in length. The”

[9] = 1 ng/ml depsipeptide for 72 hrs, all six human cancer cell lines
[10] = A498, MCF7, HepG2 cancerous cells, 1 ng/ml

C/C=C1\NC(=O)[C@H]2CSSCC/C=C/[C@H](CC(=O)N[C@H](C(C)C)C(=O)N2)OC(=O)[C@H](C(C)C)NC1=O [FR901228]
cells expressing β-galactosidase ([1]; then adenovirus with CMV-β-galactosidase, six cancer cell lines): 72-88%
frequency of expression of the β-galactosidase transgene ([1]; all cell lines): marked increases
cancerous cells expressing β-galactosidase ([2]; A498, MCF7, HepG2 following FR901228 treatment): 75-85%
increase in β-galactosidase expression upon infection ([2]; all cancerous cell lines (A498, MCF7, HepG2) following FR901228 treatment): 4-10 fold
cells expressing the β-galactosidase transgene [3]: over 80%
cells expressing β-galactosidase [4]: more than 80%
CAR expression in patient PBMNCs (CAR; after completion of a 4 hr depsipeptide infusion): increase
CAR expression in patient PBMNCs (CAR; at 24 hr of depsipeptide infusion): further increase
level of acetylated histone H3 in patient PBMNCs (acetylated histone H3 [5]): increased
level of histone H3 (histone H3; HUVEC): not altering the level of histone H3
total histone H3 levels (histone H3; K562 cells and CD34+ PBSCs): No significant change
cells expressing β-galactosidase [6]: more than 80%
histone acetylation (acetylated histone H3 [7]; 1 ng/ml depsipeptide, cancer cell lines of Example 1): marked increase
level of acetylated histone H3 (acetylated histone H3 [7]; CD34+ PBSCs): increased the level of acetylated histone H3 substantially
level of acetylated histone H3 (acetylated histone H3 [7]; HUVEC): increased the level of acetylated histone H3 substantially
level of acetylated histone H3 (acetylated histone H3 [7]; K562 cells): increased the level of acetylated histone H3 substantially
histone acetylation (acetylated histone H3 [7]; cancerous cells, 1 ng/ml): increased histone acetylation
concentration required to increase histone acetylation (acetylated histone H3 [7]; normal cells, compared with cancerous cells): higher concentration
cells expressing β-galactosidase (K562 cells): more than 80%
expression of endogenous CAR [8, 9]: increased expression
CAR expression [8, 10]: increased CAR expression in cancerous cells to levels higher than those found in normal cells
level of CAR (RT-PCR), compared with K562 ([8]; CD34+ selected PBSCs): Comparable levels of CAR
level of CAR (RT-PCR), compared with K562 ([8]; G-CSF-mobilized PBMNCs): Comparable levels of CAR
level of CAR (RT-PCR) ([8]; 0.3 ng/ml for 48 hr): increased the level of CAR significantly
increase in level of CAR (RT-PCR) ([8]; K562 cells, 1 ng/ml): about 3 fold
concentration at which induction of CAR was observed ([8]; normal cells (Clonetics)): 10 to 20 ng/mL
increase in CAR ([8]; normal cells, 10-20 ng/ml): two-fold
expression of endogenous αv integrin (αv integrin; [9]): increased expression
levels of αv integrins (αv integrin; [10]): increased from undetectable to a level similar to that found in untreated normal cells
levels of αv integrins (printed 'o integrins') (αv integrin; normal cells treated in the same manner): little increase

CC(/C=C/C(=O)NO)=C\[C@@H](C)C(=O)c1ccc(N(C)C)cc1 [trichostatin A]
level of CAR (RT-PCR) ([8]; concentration not given): increased the level of CAR slightly

CCCC(=O)[O-].[Na+] [sodium butyrate]
level of CAR (RT-PCR) ([8]; concentration not given): little effect

From patent publication US20040259772A1, “Use of a histone deacetylase inhibitor to increase the entry of an adenoviral agent into a cell” (priority 2001, published 2004)
